pEC50, pKi: −log10 of the molar value. Bounds are passed on as bounds.

These results are taken from patent publication US20160221948A1, “NITROGEN-CONTAINING SATURATED HETEROCYCLIC COMPOUND” (SUMITOMO CHEMICAL COMPANY, LIMITED, priority 2013, published 2016).

One data set concerns Crlj: WI rats. Description: Acetylcholine release enhancing action, hippocampus microdialysis test using rats. Type of data set: in vivo, rat. Conditions: 10 mg/kg (oral), 60 minutes after administration, high potassium stimulation. As to the method:
Examination of Acetylcholine Release Enhancing Action with Microdialysis Test Using Rats
A guide cannula was placed into the hippocampus of Crlj: WI rats, and microdialysis was performed by inserting a probe after the animals were recovered. After administering the compounds involved with the present invention, the hippocampus was stimulated by changing the perfusate into the high potassium solution for 15 minutes. Acetylcholine levels in the perfusate were analyzed with a HPLC-ECD apparatus.

A further data set addresses T1, SSTR3 (Homo sapiens, UniProt P32745).
T1 construct: expressed in transfected cells
Description: Binding affinity using cell membrane from cells expressing SSTR subtypes.

A further data set deals with Tg 2576 mice. Description: Aβ reducing action (brain Aβ by ELISA) using Tg 2576 mice. The format is in vivo, mouse. On the procedure: Evaluation of Cognitive Function Improving Action and Aβ Reducing Action Using Tg 2576 Mice
Four-month-old Tg 2576 mice received compounds involved with the present invention mixed in feed for 4 months. After completion of administration, the mORT test was performed to evaluate cognitive function, then the amount of brain Aβ was measured by ELISA. […] Discrimination index as indexes for evaluating cognitive function were as follows (vehicle, 0.064±0.049, 30 mg/kg/day; 0.330±0.062).

The next data set concerns the target human SSTR4 (Homo sapiens, UniProt P31391). Put plainly: Binding affinity using cell membrane from human SSTR4-expressing Chem-1 cells, [125I] Tyr11-Somatostatin 14. Set-up: expressed in transfected cells. Conditions: 0.1 nmol/L [125I] Tyr11-Somatostatin 14, 2 hours at 25° C. As to the method: Binding affinity evaluation using cell membrane from human SSTR4-expressing cells
From Chem-1 cells forcibly expressing human SSTR4, cell membrane was prepared by using Hepes Buffer. A reaction solution consisting of the prepared cell membrane, 0.1 nmol/L [^125I] Tyr11-Somatostatin 14, and a test compound was prepared, and incubated for 2 hours at 25° C. The cell membrane after incubation was filtered, and washed. After dried, the filter was immersed in a scintillator, its radioactivity was measured with a scintillation counter. By defining the difference in radioactivity between the substance not containing a test compound and the substance containing 1 μmol/L Somatostatin 14 as the specific binding amount, inhibitory rates of test compounds were calculated. Based on IC50 of the test compound calculated from the inhibition curve, the concentration of [^125I] Tyr11-Somatostatin 14, and Kd of Somatostatin 14, Ki of the test compound was calculated.

For another data set, the target named is T2, SSTR2 (Homo sapiens, UniProt P30874).
T2 construct: expressed in transfected cells
Put plainly: Binding affinity using cell membrane from cells expressing SSTR subtypes.

For data set [1], the system named is Slc:ddY mice. Description: Mouse Y-shaped maze test, scopolamine-induced memory impairment. The settings on record: for spontaneous alternations: Scopolamine HBr 0.6 mg/kg subcutaneous. The format is in vivo. On the procedure:
Evaluation of amelioration in cognitive impairment using mouse Y-shaped maze test (hereinafter, may be called “Y-maze test”)
In the Y-maze test using Slc:ddY mice (male, Japan SLC, Inc.) with body weight of 25-35 g or 27-30 g, when 0.6 mg/kg of Scopolamine HBr (cat. No. S0929, Sigma Aldrich, USA) is subcutaneously administered to mice, memory impairment is caused, and reducing in spontaneous alternation is observed. Accordingly, mice were pre-treated by orally receiving compounds involved with the present invention, and ameliorating action in memory impairment was evaluated. […] (hereinafter, spontaneous alternations in each group in Example 21 are shown: 0.5% MC receiving group, 71.2±3.5; Scopolamine receiving group, 47.5±2.6; 1 mg/kg receiving group, 60.7±2.6; 3 mg/kg receiving group, 64.6±2.2.)

Another data set deals with T3, SSTR1 (Homo sapiens, UniProt P30872).
T3 construct: expressed in transfected cells
Description: Binding affinity using cell membrane from cells expressing SSTR subtypes.

The nature of data set [2]: Pharmacokinetic test (PK test) using rodents. The format is in vivo. Conditions: mouse, brain and plasma; mice, 10 mg/kg oral, an hour and 4 hours after; read-out: brain-plasma concentration ratio. As to the method: Moreover, it was verified, as the results of a pharmacokinetic test (PK test) using rodents, that the compound of the present invention has more excellent in vivo kinetics, central nervous system penetration, and exposure level, compared with the pyrrolidine derivative described in Patent Literature 1. In particular, the following Test Example 8 was performed.
Pharmacokinetic Test (PK Test) Using Rodents
Compounds of the present invention were orally administered to mice at a dose of 10 mg/kg, and an hour and 4 hours after, the plasma and the brain were collected, concentrations of the administered compounds were measured by LC/MS/MS. As well, protein binding rates in the plasma and the brain were measured with equilibrium dialysis method, and concentrations of non-binding compounds were calculated. The brain-plasma concentration ratio was about 5 in any cases of an hour and 4 hours after for compounds obtained in Examples 7, 14, 15, 16, 17, 18, 20, 21, 27, 40, and 50, which indicated excellent central nervous system penetration.

For data set [3], the system named is Slc:ddY mice. Description: Mouse novel object recognition test (mORT). Type of data set: in vivo. As to the method:
Evaluation of cognitive function using mouse novel object recognition test (hereinafter, may be called “mORT”)
In the mORT using Slc:ddY mice (male, Japan SLC, Inc.) with body weight of 25-45 g or 35-40 g, memory deterioration to familiar subject depending on the interval time between the first trial (training) and the second trial (test) is observed. If the second trial is performed 24 hours after performing the first trial, significant forgetting is observed. […] […] (discrimination index as indexes for cognitive function are shown: 0.5% MC receiving group, 0.054±0.026; 3 mg/kg receiving group, 0.245±0.066.)

Data set [4] has as its system SH-SY5Y cells stably expressing human neprilysin/human SSTR4. Put plainly: Neprilysin membrane translocation test using human neprilysin/human SSTR4 coexpressing cells. Type of data set: cell-based. As to the method: Neprilysin Membrane Translocation Test Using Human Neprilysin/Human SSTR4 Coexpressing Cells
SH-SY5Y cells stably expressing human neprilysin/human SSTR4 were seeded to culture plates, and incubated in a 37° C./5% CO2 incubator overnight. On the next day, the compounds involved with the present invention were added, and cells were incubated in the 37° C./5% CO2 incubator another night. On the next day, 4% paraformaldehyde was added, and cells were fixed. The cells were washed, and blocked with 3% BSA solution. Then, immunostaining with an anti-neprilysin antibody and Alexa Fluor 488 donkey anti-mouse IgG was performed, and analyzed with an IN CELL Analyzer.

Where [5] appears, read: 3 mg/kg oral, given after the first trial.

T2 sequence (P30874 whole entry, species assumed): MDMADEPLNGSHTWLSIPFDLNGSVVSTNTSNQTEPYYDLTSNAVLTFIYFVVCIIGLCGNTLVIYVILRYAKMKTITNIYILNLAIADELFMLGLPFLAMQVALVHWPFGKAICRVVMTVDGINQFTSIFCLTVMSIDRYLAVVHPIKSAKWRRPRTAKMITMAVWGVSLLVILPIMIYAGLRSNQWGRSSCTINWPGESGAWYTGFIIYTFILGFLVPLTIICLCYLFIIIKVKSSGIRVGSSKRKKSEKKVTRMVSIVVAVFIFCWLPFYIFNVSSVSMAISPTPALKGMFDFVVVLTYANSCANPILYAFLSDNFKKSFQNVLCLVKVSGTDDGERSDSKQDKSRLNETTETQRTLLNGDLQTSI
T3 sequence (P30872 whole entry, species assumed): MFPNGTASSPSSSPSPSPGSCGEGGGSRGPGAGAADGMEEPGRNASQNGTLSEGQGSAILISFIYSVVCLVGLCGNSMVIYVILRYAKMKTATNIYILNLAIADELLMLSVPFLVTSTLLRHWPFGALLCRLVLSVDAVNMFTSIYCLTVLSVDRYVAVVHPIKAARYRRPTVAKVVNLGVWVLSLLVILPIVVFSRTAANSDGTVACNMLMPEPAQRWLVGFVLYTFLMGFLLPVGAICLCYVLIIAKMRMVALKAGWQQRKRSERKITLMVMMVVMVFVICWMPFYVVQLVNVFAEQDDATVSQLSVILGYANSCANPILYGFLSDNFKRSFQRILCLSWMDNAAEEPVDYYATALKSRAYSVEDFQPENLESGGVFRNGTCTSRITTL
T1 sequence (P32745 whole entry, species assumed): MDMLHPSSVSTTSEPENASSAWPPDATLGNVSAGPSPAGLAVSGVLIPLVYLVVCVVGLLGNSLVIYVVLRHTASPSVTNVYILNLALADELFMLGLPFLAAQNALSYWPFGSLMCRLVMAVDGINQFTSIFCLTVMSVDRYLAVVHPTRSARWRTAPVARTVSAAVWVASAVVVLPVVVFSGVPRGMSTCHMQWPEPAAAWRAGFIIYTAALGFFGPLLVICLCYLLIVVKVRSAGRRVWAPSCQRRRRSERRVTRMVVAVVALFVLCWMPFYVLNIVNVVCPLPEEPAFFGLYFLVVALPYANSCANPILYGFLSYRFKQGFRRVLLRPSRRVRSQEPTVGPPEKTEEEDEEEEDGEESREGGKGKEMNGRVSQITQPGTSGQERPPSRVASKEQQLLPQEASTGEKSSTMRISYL
human SSTR4, sequence (P31391 whole entry): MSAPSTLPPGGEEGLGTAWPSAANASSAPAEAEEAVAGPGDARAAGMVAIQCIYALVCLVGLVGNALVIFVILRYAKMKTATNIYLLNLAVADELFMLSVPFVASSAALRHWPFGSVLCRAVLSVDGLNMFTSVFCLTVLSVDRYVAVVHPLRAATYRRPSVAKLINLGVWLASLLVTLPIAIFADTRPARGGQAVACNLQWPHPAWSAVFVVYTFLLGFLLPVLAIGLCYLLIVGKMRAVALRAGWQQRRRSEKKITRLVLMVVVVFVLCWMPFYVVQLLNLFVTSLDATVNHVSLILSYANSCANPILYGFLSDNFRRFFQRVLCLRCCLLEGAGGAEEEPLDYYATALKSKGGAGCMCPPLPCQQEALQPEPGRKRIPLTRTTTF

Consider `CN1CCC[C@H](C(=O)NC(C)(C)c2cc(Cl)ccc2Cl)C1` [Example 21, (3S)—N-[2-(2,5-dichlorophenyl)propane-2-yl]-1-methylpiperidine-3-carboxamide], for which, in the data set with Crlj: WI rats, the “acetylcholine level in hippocampus perfusate compared with the Vehicle” value is given as “significantly enhanced acetylcholine level”. In addition, the pKi on SSTR3 is less than 5.52; on human SSTR4, 7.68; at SSTR2, less than 5.30; at SSTR1 it was 5.80. Moreover, the “hippocampus Aβ42 reducing action compared with the Vehicle” value in the data set on Tg 2576 mice (100 mg/kg/day) is “significant hippocampus Aβ42 reducing action”. Besides, the “hippocampus Aβ42” value with Tg 2576 mice (100 mg/kg/day mixed in feed for 4 months) worked out at 198.11 ± 26.32 pmol/g. Besides, the figures for the spontaneous alternations in the data set on Slc:ddY mice [1] (1 mg/kg oral) and in the data set on Slc:ddY mice [1] (3 mg/kg oral) were 60.7±2.6 and 64.6±2.2, respectively. For the same compound, the “ameliorating action in memory impairment” value with Slc:ddY mice [1] (at 1 or 3 mg/kg (oral)) was “significant ameliorating action in memory impairment”. Also, in data set [2], the Kp is approximately 5. Moreover, the memory enhancing action result with Slc:ddY mice [3] (3 mg/kg (oral), administered before the first trial) was “significant memory enhancing action”; in the data set on Slc:ddY mice [3] (setting [5]), “significant memory enhancing action”. The discrimination index with Slc:ddY mice [3] (3 mg/kg oral, administered before the first trial, second trial 24 hours later) came to 0.214±0.072; in the data set with Slc:ddY mice [3] (setting [5]), 0.245±0.066. Moreover, the “translocation of neprilysin to cell membrane” value in data set [4] is recorded as “concentration-dependently induced the translocation of neprilysin to cell membrane”. In data set [4] (Homo sapiens, SH-SY5Y, overnight incubation, immunostaining, IN CELL Analyzer), this compound gave a pEC50 of 8.03.
